Counter-ions that a name gives are not always drawn.

The target in the test is T1, androgen receptor (Rattus norvegicus, UniProt P15207).
T1 sequence (P15207 1-902): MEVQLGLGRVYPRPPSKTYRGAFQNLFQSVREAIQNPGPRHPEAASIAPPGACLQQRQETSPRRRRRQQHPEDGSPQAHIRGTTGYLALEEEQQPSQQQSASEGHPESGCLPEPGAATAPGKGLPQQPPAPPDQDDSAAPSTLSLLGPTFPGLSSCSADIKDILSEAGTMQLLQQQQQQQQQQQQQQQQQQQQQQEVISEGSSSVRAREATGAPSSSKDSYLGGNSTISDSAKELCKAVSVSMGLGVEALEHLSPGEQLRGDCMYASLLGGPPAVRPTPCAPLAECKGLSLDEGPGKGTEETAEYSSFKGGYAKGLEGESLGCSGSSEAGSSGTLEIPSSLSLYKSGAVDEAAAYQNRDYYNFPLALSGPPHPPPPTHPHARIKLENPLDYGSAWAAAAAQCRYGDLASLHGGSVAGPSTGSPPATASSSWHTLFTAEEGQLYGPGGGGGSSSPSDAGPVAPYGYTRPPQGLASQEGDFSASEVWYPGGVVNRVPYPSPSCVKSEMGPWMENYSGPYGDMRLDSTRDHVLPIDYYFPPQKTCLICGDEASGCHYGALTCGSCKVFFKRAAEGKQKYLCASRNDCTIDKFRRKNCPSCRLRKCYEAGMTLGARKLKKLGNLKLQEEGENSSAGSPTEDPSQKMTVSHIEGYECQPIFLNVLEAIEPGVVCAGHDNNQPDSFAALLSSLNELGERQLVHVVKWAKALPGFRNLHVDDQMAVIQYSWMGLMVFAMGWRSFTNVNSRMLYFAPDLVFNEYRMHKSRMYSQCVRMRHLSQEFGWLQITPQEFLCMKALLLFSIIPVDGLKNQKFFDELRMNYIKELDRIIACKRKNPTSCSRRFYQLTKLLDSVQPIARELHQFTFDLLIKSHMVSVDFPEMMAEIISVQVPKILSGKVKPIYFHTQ
In words: Measurement of organ selective androgen receptor regulating action (organ weights in castrated, testosterone propionate-supplemented rats). Type of test: in vivo, Sprague-Dawley male rat. Also noted: from tissue; host or cells: Sprague-Dawley male rat, whole animal (levator ani muscle, prostate, vesicular gland). Particulars: testosterone propionate 0.5 mg/kg s.c. once a day, twice a day, 1 week. The protocol:
A 3-week-old Sprague-Dawley male rat was castrated, and testosterone•propionate (0.5 mg/kg) was administered subcutaneously once a day from the next day. Simultaneously, a test compound was dissolved in 10% ethanol/corn oil, and orally administered twice a day. The next day of a 1 week administration, the weights of the levator ani muscle, prostate and vesicular gland were measured. The dose of the test compound is indicated in a daily amount.
As the test compounds, compound 114, compound 158, compound 117, compound 119 and compound of Reference Example 2 were used.

Where [1] appears, read: test compound 0.4138 mg/kg/day orally.
[2] abbreviates: test compound 1.379 mg/kg/day orally.
The mark [3] stands for this setting: test compound 3 mg/kg/day orally.
[4] abbreviates: test compound 10 mg/kg/day orally.
Where [5] appears, read: test compound 4.143 mg/kg/day orally.
[6] abbreviates: test compound 13.81 mg/kg/day orally.

`C[C@H]1[C@@H](O)CCN1c1ccc(C#N)c2sccc12` [compound 119, 4-[(2S,3S)-3-hydroxy-2-methyl-1-pyrrolidinyl]-1-benzothiophene-7-carbonitrile sulfate]: the “levator ani muscle weight, relative % to control” value reads like this: under setting [1], 131.5%; under setting [2], 151.8%. In addition, the “prostate weight, relative % to control” value under setting [1] worked out at 87.8% and the “prostate weight, relative % to control” value under setting [2] was found to be 91.4%.

For the compound `C[C@H]1[C@@H](C(C)(C)O)CCN1c1ccc(C#N)c2sccc12` [Reference Example 2, 4-[(2S,3S)-3-(1-hydroxy-1-methylethyl)-2-methylpyrrolidin-1-yl]-1-benzothiophene-7-carbonitrile], under setting [3], the “levator ani muscle weight, relative % to control” value stood at 108.0% and the “prostate weight, relative % to control” value was determined as 92.0%. Moreover, under setting [4], the “levator ani muscle weight, relative % to control” value came to 120.1% and the “prostate weight, relative % to control” value came to 87.5%.

Regarding “4-[(2S,3R)-3-hydroxy-2-methyl-1-pyrrolidinyl]-1-naphtonitrile methanesulfonate [compound 114]”, under setting [5], the “levator ani muscle weight, relative % to control” value turned out to be 142.1% and the “prostate weight, relative % to control” value is 90.6%. In addition, under setting [6], the “levator ani muscle weight, relative % to control” value is given as 157.7% and the “prostate weight, relative % to control” value was 99.1%.

These data come from patent US20090042857A1, “Novel Pharmaceutical” (priority 2006, published 2009).
